Measured values reported in patent US20240277631A1, “SMALL MOLECULE DRUG (ELP-004) TO PREVENT BONE LESIONS CAUSED BY MULTIPLE MYELOMA” (West Virginia University Board of Governors on behalf of …, priority 2023, published 2024).
Where two headings read alike, the source gives them in different places.

Tests used:
[1] = biological target: T1, CYP2C8 (Homo sapiens, UniProt P10632); assay: stability with recombinant CYP2C8; format: in vitro ADME; settings: recombinant CYP2C8, intrinsic clearance, read-out: Recombinant CYP CLINT
T1 sequence (P10632 1-490): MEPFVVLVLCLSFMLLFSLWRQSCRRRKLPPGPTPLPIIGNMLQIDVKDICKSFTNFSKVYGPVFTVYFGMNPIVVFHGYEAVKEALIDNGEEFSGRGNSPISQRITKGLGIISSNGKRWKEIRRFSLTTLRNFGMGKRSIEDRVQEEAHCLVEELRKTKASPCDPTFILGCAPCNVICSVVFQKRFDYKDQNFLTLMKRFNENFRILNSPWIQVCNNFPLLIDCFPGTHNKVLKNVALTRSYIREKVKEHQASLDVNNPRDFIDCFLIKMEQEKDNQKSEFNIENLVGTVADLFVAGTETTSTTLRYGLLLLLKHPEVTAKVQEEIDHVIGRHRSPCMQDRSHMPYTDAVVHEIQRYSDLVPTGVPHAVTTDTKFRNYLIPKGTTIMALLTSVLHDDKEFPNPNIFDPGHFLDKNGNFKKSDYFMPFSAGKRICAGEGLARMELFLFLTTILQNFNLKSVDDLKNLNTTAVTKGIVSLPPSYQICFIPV
Method: (§1) Depicted in table 2 is cytochrome P450 phenotyping and inhibition by ELP-004. The stability of ELP-004 was tested in the presence of recombinant enzymes CYP1A2, CYP2B6, CYP2C8, CYP2C9, CYP2C19, CYP2D6, and CYP3A4. ELP-004 (1 μM) was incubated with recombinant enzymes and NADPH. The amount of ELP-004 remaining at each timepoint was analyzed by LC-MS/MS. Incubations in control recombinant enzymes were also performed to assess non-enzymatic mediated stability. The intrinsic clearance of ELP-004 was determined. […] A decrease in the formation of the metabolite compared to vehicle control is used to calculate an IC50 value. Metabolite peak area ratio response as a percentage of vehicle control is plotted against the test compound concentration.

[2] = system: Murine BMSMCs; assay: TNFα-induced osteoclast fusion (TRAP, multinucleation, marker mRNA); format: cell-based; settings: RANKL/TNFα
Method: (A_C) Murine BMSMCs were grown for up to 21 days in media supplemented with 50 ng/ml m-CSF, […] RANKL and 2 ng/ml TNFα. Each experiment was repeated a minimum of three times. Cells were fixed and stained for Tartrate Resistant Acid Phosphatase (TRAP)_activity at days 1, 7, 14 and 21. In schematic A, the number of TRAP positive osteoclast-like cells (out of 100 cells) were counted for each time point; TRAP intensity was also calculated. In schematic B, at each time point the number of nuclei for each cell was counted and the average number of nuclei per cell for 100 cells is shown. […] The expression patterns of osteoclast markers was unaffected by ELP-004, indicating selective inhibition of specific features of osteoclastogenesis.

[3] = system: Jurkat cells; format: cell-based; parameters: dose or concentration left out as unconfirmed; settings: human
Method: wherein each X is chlorine, Y is a methyl group, and R is an ethyl group. N-MeDCPA is synthesized as described in U.S. Pat. No. 10,682,320, which is incorporated by reference herein. ELP-004 (N-MeDCPA) precludes metabolizing to two toxic metabolites, N—OH-dichloroaniline and 6-OH-dichloroaniline. In vitro assays for toxicity caused by ELP-004 using Jurkat cells show 50% toxicity at […] and <2% toxicity at […].
ELP-004 (i.e. N-MeDCPA) was specifically developed to preclude metabolizing to two toxic metabolites, N—OH-dichloroaniline and 6-OH-dichloroaniline. In vitro assays for toxicity caused by ELP-004 using Jurkat cells show 50% toxicity at […] and <2% toxicity at […].

[4] = system: osteoclasts differentiated from Murine BMSMCs; assay: matrix resorption (pit formation) on Osteo-Assay surface plates; format: cell-based; settings: irrespective of conditions, days 7, 14, 21
Method: Murine BMSMCs were differentiated to form osteoclasts on Osteo-Assay surface plates. The sizes of pits formed by the resorptive activity of osteoclasts differentiated under the three conditions were analyzed at days 7, 14, and 21. Average pit sizes of 10-30 pits are shown.

[5] = biological target: T2, CYP2B6 (Homo sapiens, UniProt P20813); assay: stability with recombinant CYP2B6; format: in vitro ADME; settings: recombinant CYP2B6, intrinsic clearance, read-out: Recombinant CYP CLINT
T2 sequence (P20813 1-491): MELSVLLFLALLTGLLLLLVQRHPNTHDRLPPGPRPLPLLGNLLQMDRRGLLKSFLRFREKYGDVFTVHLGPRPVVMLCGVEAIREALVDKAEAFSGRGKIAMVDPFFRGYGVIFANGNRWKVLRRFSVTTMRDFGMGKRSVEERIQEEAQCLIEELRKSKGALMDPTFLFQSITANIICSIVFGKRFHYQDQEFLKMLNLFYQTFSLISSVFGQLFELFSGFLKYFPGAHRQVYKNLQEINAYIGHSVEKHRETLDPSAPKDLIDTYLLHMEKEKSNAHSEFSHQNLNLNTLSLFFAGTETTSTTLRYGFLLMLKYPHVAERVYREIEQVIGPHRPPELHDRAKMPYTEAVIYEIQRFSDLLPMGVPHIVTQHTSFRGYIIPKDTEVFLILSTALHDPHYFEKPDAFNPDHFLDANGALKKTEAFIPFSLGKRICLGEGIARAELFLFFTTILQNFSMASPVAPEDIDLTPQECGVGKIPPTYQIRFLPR
Method: as §1

[6] = water solubility; format: physicochemical
Source text: Those persons of ordinary skill in the art will understand that ELP-004 may be solubilized in ethanol and then diluted in sterile saline. These methods include wherein the route of administration may be, for example but not limited to, the intravenous, intramuscular, or subcutaneous routes, or via the oral route of administration.

[7] = biological target: CYP2C19 (Homo sapiens, UniProt P33261); assay: stability with recombinant CYP2C19; format: in vitro ADME; settings: recombinant CYP2C19, intrinsic clearance, read-out: Recombinant CYP CLINT
Chain of CYP2C19 (P33261 whole entry): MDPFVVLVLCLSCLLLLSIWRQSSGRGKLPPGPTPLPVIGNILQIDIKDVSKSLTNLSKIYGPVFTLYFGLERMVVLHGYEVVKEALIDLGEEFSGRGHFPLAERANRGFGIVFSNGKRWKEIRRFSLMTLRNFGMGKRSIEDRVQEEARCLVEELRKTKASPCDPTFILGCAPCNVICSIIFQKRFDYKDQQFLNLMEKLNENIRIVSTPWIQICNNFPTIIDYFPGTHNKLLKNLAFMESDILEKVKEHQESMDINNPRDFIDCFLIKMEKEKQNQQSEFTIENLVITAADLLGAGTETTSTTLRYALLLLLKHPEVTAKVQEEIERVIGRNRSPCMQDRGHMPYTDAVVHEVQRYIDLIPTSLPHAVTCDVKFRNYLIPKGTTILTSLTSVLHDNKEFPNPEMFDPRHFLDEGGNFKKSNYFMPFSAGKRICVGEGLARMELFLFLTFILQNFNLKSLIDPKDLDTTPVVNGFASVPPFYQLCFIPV
Method: as §1

[8] = biological target: CYP2C9 (Homo sapiens, UniProt P11712); assay: stability with recombinant CYP2C9; format: in vitro ADME
Chain of CYP2C9 (P11712 whole entry): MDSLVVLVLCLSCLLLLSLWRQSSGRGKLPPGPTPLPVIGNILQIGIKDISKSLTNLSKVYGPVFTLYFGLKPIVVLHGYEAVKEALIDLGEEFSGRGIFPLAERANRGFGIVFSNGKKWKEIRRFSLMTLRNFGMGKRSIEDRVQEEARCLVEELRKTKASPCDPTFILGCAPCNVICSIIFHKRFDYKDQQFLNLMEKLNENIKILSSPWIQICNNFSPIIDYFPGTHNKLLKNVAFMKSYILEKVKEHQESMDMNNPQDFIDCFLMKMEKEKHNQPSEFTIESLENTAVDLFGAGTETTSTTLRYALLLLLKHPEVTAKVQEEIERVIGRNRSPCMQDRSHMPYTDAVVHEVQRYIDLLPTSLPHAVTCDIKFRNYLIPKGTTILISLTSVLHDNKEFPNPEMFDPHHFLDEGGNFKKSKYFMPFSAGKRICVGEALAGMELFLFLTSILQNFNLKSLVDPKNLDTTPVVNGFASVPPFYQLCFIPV
Method: as §1

[9] = system: Murine BMSMCs; assay: cytosolic Ca2+ levels and NFAT nuclear translocation during osteoclastogenesis; format: cell-based; settings: 100 nM
[10] = system: osteoclasts; assay: development of osteoclasts (osteoclastogenesis); format: cell-based

## CCC(=O)N(C)c1ccc(Cl)c(Cl)c1 [ELP-004, N-(3,4-dichlorophenyl)-N-methylpropanamide]
[1]
  microsomal CLint at 1 μM: 0.219 µL/min/mg
[2]
  TRAP activity: completed abrogated
  expression patterns of osteoclast markers: unaffected
  multinucleation: severely attenuated
[3]; 200
  toxicity: < 2%
[3]; 800
  toxicity: 50%
[4]
  matrix resorption activity of osteoclasts: No resorption was observed
[5]
  microsomal CLint at 1 μM: 0.815 µL/min/mg
[6]
  water solubility: not water soluble
[7]
  microsomal CLint at 1 μM: 0.279 µL/min/mg
[8]; human, recombinant CYP2C9, intrinsic clearance, read-out: Recombinant CYP CLINT
  microsomal CLint at 1 μM: < 0.154 µL/min/mg
[8]; recombinant CYP2C9
  metabolism by recombinant enzyme: not metabolized
[8]; recombinant CYP2C9, 1 μM, NADPH
  ELP-004 t1/2: >3 h
[9]; LTB4-induced changes
  NFAT nuclear translocation: significantly inhibited
  cytosolic Ca2+ levels: significantly inhibited
[9]; RANKL-induced osteoclastogenesis
  NFAT nuclear translocation: had no effect
[9]; TNFα-induced changes
  NFAT nuclear translocation: significantly inhibited
  cytosolic Ca2+ levels: significantly inhibited
[10]; general statement
  development of osteoclasts: inhibits the development of osteoclasts in a dose dependent manner
[10]; summary statement
  osteoclast maturation: suppressed
